# How the values were obtained:
# Oryctolagus cuniculus [1] = assay: In vivo intraocular pressure (IOP) lowering at 0 min in normotensive rabbits after treatment with one drop (50 uL) 2% solution of CA inhibitor directly into the eye, at 7.5 pH; assay type: functional
# Carbonic anhydrase 1 = Carbonic anhydrase 1 (Homo sapiens, UniProt P00915)
# Description: Binding affinity against human carbonic anhydrase I (hCA I)
# Carbonic anhydrase 2 = Carbonic anhydrase 2 (Homo sapiens, UniProt P00918)
# Description: Binding affinity against human carbonic anhydrase II (hCA -II)
# Oryctolagus cuniculus [2] = species on record: Oryctolagus cuniculus
# Description: In vivo intraocular pressure (IOP) lowering at 120 min in normotensive rabbits after treatment with one drop (50 uL) 2% solution of CA inhibitor directly into the eye, at 7.0 pH
# Oryctolagus cuniculus [3] = species on record: Oryctolagus cuniculus; remark: listed apart in the source
# Description: In vivo intraocular pressure (IOP) lowering at 90 min in normotensive rabbits after treatment with one drop (50 uL) 2% solution of CA inhibitor directly into the eye, at 7.0 pH
# Oryctolagus cuniculus [4] = species on record: Oryctolagus cuniculus; remark: listed apart in the source
# Description: In vivo intraocular pressure (IOP) lowering at 30 min in normotensive rabbits after treatment with one drop (50 uL) 2% solution of CA inhibitor directly into the eye, at 7.0 pH
# Oryctolagus cuniculus [5] = assay: In vivo intraocular pressure (IOP) lowering at 60 min in normotensive rabbits after treatment with one drop (50 uL) 2% solution of CA inhibitor directly into the eye, at 7.0 pH; assay type: functional
# Carbonic anhydrase 4 = molecular target: T1, Carbonic anhydrase 4 (Bos taurus, UniProt Q95323)
# T1 sequence (Q95323 whole entry): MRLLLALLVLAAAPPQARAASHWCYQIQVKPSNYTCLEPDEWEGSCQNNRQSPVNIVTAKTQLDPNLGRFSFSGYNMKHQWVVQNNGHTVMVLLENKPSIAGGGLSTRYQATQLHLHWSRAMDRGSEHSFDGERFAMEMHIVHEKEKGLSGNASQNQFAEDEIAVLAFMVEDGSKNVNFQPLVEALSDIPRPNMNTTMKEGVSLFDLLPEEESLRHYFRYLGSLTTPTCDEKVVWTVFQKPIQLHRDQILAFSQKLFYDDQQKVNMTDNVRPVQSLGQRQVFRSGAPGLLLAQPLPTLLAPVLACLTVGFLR
# Description: Compound was evaluated for binding affinity against bovine carbonic anhydrase IV (bCA IV)
# Oryctolagus cuniculus [6] = assay: In vivo intraocular pressure (IOP) lowering at 30 min in normotensive rabbits after treatment with one drop (50 uL) 2% solution of CA inhibitor directly into the eye, at 7.5 pH; assay type: functional
# Oryctolagus cuniculus [7] = species on record: Oryctolagus cuniculus; remark: listed apart in the source
# Description: Fall of in vivo intraocular pressure (IOP) of glaucomatous rabbits at 90 min after treatment with one drop (50 uL) solution of 2% of CA inhibitor directly into eye
# Oryctolagus cuniculus [8] = species on record: Oryctolagus cuniculus; remark: listed apart in the source
# Description: Fall of in vivo intraocular pressure (IOP) of glaucomatous rabbits at 120 min after treatment with one drop (50 uL) solution of 2% of CA inhibitor directly into eye
# Oryctolagus cuniculus [9] = species on record: Oryctolagus cuniculus; remark: listed apart in the source
# Description: Fall of in vivo intraocular pressure (IOP) of glaucomatous rabbits at 60 min after treatment with one drop (50 uL) solution of 2% of CA inhibitor directly into eye
# Oryctolagus cuniculus [10] = assay: In vivo intraocular pressure (IOP) lowering at 120 min in normotensive rabbits after treatment with one drop (50 uL) 2% solution of CA inhibitor directly into the eye, at 7.5 pH; assay type: functional
# physchem = conditions: octanol/water
# Description: Partition coefficient (logP)
# Oryctolagus cuniculus [11] = species on record: Oryctolagus cuniculus; remark: listed apart in the source
# Description: Fall of in vivo intraocular pressure (IOP) of glaucomatous rabbits at 0 min after treatment with one drop (50 uL) solution of 2% of CA inhibitor directly into eye
# [12] = Compound was evaluated for in vitro corneal permeability in no epithelium; assay type: ADME, tissue-based, Cornea
# Oryctolagus cuniculus [13] = assay: In vivo intraocular pressure (IOP) lowering at 60 min in normotensive rabbits after treatment with one drop (50 uL) 2% solution of CA inhibitor directly into the eye, at 7.5 pH; assay type: functional
# Oryctolagus cuniculus [14] = assay: In vivo intraocular pressure (IOP) lowering at 90 min in normotensive rabbits after treatment with one drop (50 uL) 2% solution of CA inhibitor directly into the eye, at 7.5 pH; assay type: functional
# Oryctolagus cuniculus [15] = species on record: Oryctolagus cuniculus; remark: listed apart in the source
# Description: Fall of in vivo intraocular pressure (IOP) of glaucomatous rabbits at 30 min after treatment with one drop (50 uL) solution of 2% of CA inhibitor directly into eye
# [16] = Compound was evaluated for in vitro corneal permeability in cornea intact; assay type: ADME, tissue-based
# Oryctolagus cuniculus [17] = species on record: Oryctolagus cuniculus; remark: listed apart in the source
# Oryctolagus cuniculus [18] = assay: In vivo intraocular pressure (IOP) lowering at 0 min in normotensive rabbits after treatment with one drop (50 uL) 2% solution of CA inhibitor directly into the eye, at 7.0 pH; assay type: functional
# Carbonic anhydrase 1, sequence (P00915 whole entry): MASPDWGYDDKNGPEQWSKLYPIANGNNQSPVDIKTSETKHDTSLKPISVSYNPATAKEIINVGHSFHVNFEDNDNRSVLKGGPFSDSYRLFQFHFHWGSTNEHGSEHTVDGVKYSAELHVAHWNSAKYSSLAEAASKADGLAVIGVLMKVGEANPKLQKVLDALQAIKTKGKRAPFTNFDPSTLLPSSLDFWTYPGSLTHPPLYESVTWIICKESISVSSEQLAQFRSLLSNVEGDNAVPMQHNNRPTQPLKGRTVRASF
Ki (Carbonic anhydrase 1) [nM],Ki (Carbonic anhydrase 2) [nM],Ki (Carbonic anhydrase 4) [nM],logP (physchem),Km x10e3 [12] [hr-1],Km x10e3 [16] [hr-1],Structure (SMILES),Delta IOP (Oryctolagus cuniculus [1]) [mmHg],Delta IOP (Oryctolagus cuniculus [2]) [mmHg],Delta IOP (Oryctolagus cuniculus [3]) [mmHg],Delta IOP (Oryctolagus cuniculus [4]) [mmHg],also measured
38,5,14,,,,NS(=O)(=O)c1ccc(C(=O)Nc2nnc(S)s2)cc1,0,2.1,3.1,7,Delta IOP (Oryctolagus cuniculus [5]): 5 mmHg
13,10,22,1.89,7,3.1,NS(=O)(=O)c1nnc(NC(=O)c2ccc(Cl)c(S(N)(=O)=O)c2)s1,0,,,,Delta IOP (Oryctolagus cuniculus [6]): 2.5 mmHg; Delta IOP (Oryctolagus cuniculus [7]): 14.2 mmHg; Delta IOP (Oryctolagus cuniculus [8]): 13.3 mmHg; Delta IOP (Oryctolagus cuniculus [9]): 13 mmHg; Delta IOP (Oryctolagus cuniculus [10]): 7.5 mmHg; Delta IOP (Oryctolagus cuniculus [11]): 0 mmHg; Delta IOP (Oryctolagus cuniculus [13]): 7.1 mmHg; Delta IOP (Oryctolagus cuniculus [14]): 8.3 mmHg; Delta IOP (Oryctolagus cuniculus [15]): 6.4 mmHg
400,9,16,1.82,6.4,3.3,CC(C)C[C@H](NC(=O)c1ccc(S(N)(=O)=O)cc1)C(=O)NCC(=O)O,,8.7,7.8,3.3,Delta IOP (Oryctolagus cuniculus [17]): 5.2 mmHg; Delta IOP (Oryctolagus cuniculus [18]): 0 mmHg

# Source: ChEMBL document CHEMBL1134130, “Carbonic anhydrase inhibitors: 4-sulfamoyl-benzenecarboxamides and 4-chloro-3-sulfamoyl-benzenecarboxamides with strong topical antiglaucoma properties” (Bioorg Med Chem Lett, 2001)
